Holding throughout (type): biochemical
One test has as its target T1, recombinant Aurora A (Homo sapiens, UniProt O14965).
T1 construct: purchased Upstate, Lake Placid, N.Y
T1 sequence (O14965 1-403): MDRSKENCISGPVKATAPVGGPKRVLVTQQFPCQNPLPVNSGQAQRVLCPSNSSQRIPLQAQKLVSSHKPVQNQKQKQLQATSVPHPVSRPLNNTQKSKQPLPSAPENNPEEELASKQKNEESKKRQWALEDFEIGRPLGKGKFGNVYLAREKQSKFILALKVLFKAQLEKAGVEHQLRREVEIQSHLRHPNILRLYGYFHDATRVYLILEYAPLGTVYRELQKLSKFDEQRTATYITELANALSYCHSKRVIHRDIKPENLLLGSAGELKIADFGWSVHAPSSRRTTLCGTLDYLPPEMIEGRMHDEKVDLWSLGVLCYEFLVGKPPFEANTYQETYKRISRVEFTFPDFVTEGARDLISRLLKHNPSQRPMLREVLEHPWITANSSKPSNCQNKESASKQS
Put plainly: Aurora A (Aurora 2) inhibition assay, Z'-Lyte kinase assay. As to conditions: group with IC50 greater than 100 nM; ATP 10 μM, 1 h. The gist of the method:
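Z'-Lyte FRET assay: Aurora A (200-500 ng/mL final), Ser/Thr 1 peptide (2 μM) and ATP (10 μM) in 50 mM HEPES pH 7.5, 10 mM MgCl2, 5 mM EGTA, 0.05% Brij-35, 2 mM DTT, 1 h at room temperature. Coumarin/fluorescein emission ratio converted to percent phosphorylation; dose-response curves plotted.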

The target in test [1] is T2, N-terminal GST-tagged recombinant human Flt3, residues 564-end (Homo sapiens, UniProt P36888).
T2 construct: recombinant human Flt3, residues 564-end; GST (N); purchased Upstate USA Inc, 706 Forest Street, Charlottesville, Va
T2 sequence (P36888 564-993 limits assumed): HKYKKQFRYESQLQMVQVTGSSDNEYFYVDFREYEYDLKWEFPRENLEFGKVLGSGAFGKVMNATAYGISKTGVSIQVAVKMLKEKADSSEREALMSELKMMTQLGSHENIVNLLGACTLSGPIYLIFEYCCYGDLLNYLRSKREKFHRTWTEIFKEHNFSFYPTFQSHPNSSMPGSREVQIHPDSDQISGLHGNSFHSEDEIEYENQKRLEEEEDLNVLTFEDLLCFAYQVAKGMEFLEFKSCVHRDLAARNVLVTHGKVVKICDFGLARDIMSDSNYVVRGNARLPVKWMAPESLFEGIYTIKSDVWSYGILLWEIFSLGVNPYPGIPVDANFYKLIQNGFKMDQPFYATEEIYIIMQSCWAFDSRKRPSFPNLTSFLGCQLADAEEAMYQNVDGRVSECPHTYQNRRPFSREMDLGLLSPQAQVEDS
Put plainly: Flt3 kinase inhibition assay (33P-ATP filter assay). The note with it: 40 minutes at room temperature. In short, it runs like this:
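Serial compound dilutions incubated 40 min at room temperature with 5-10 mU Flt3 kinase, 50 μM peptide substrate and [γ-33P]ATP/10 mM magnesium acetate, pH 7.0. Phosphoric acid stop, filter capture and scintillation counting; activity compared with uninhibited reactions.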

In test [2] the target is T3, N-terminal His6-tagged recombinant human KDR, residues 790-end (Homo sapiens, UniProt P35968).
T3 construct: recombinant human KDR, residues 790-end; His6 (N); purchased Upstate USA Inc, 706 Forest Street, Charlottesville, Va
Briefly: KDR kinase inhibition assay (33P-ATP filter assay). As to conditions: group with IC50 greater than 100 nM. The gist of the method: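 Radiometric filter assay: reaction started with Mg acetate (10 mM)/[γ-33P]ATP mix, run 40 min at room temperature in 8 mM MOPS pH 7.0 with 0.2 mM EDTA, MBP substrate (0.33 mg/mL) and recombinant KDR 790-end (5-10 mU). Phosphate incorporation by scintillation counting of P30 filtermats, compared with uninhibited reactions.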

Experimental findings from patent US20090029992A1, “SUBSTITUTED PYRAZOLE COMPOUNDS” (priority 2007, published 2009) are described below.

pIC50: −log10 of the molar value. Bounds are passed on as bounds.

T3 sequence (P35968 790-1356 limits assumed): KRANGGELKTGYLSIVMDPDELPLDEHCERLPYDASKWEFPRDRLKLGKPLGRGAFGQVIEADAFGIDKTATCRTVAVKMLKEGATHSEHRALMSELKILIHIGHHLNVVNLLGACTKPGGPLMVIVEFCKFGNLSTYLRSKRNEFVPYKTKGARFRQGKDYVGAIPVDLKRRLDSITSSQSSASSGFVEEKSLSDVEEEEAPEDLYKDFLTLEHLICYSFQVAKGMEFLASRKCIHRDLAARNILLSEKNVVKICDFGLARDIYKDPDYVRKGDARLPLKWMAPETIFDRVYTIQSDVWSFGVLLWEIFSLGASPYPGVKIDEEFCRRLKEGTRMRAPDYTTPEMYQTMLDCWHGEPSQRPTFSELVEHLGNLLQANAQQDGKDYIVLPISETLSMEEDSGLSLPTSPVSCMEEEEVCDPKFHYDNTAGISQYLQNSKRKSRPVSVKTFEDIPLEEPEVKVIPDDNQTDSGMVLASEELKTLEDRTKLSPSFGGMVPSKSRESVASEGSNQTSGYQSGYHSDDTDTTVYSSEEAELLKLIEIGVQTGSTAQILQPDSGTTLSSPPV

Take `COCCN(C)c1cc(Nc2cc(C)[nH]n2)nc(-c2ccc(OC)cc2)n1` [Compound 67, N^4-(2-methoxyethyl)-2-(4-methoxyphenyl)-N^4-methyl-N^6-(5-methyl-1H-pyrazol-3-yl)pyrimidine-4,6-diamine]: the pIC50 at recombinant Aurora A is no less than 6.00; in test [1], no less than 7.00; in test [2] it was no less than 6.00.
For `COCCN(C)c1cc(Nc2cc(C)[nH]n2)nc(-c2ccc3ccccc3c2)n1` [Example 149, N^4-(2-methoxyethyl)-N^4-methyl-N^6-(5-methyl-1H-pyrazol-3-yl)-2-(naphthalen-2-yl)pyrimidine-4,6-diamine], the results for the pIC50 (at recombinant Aurora A; in test [1]; in test [2]) were no less than 6.00, no less than 7.00 and no less than 6.00, respectively.
Regarding `COCCN(C)c1cc(Nc2cc(C)[nH]n2)nc(-c2ccccc2C(F)(F)F)n1` [Example 126, N^4-(2-methoxyethyl)-N^4-methyl-N^6-(5-methyl-1H-pyrazol-3-yl)-2-(2-(trifluoromethyl)phenyl)pyrimidine-4,6-diamine], the values for the pIC50 (at recombinant Aurora A; in test [1]; in test [2]) were no less than 6.00, no less than 7.00 and no less than 6.00, respectively.
As for `COCCN(C)c1cc(Nc2cc(C)[nH]n2)nc(-c2cccc3c2OCCO3)n1` [Example 150, 2-(2,3-dihydrobenzo[b][1,4]dioxin-5-yl)-N^4-(2-methoxyethyl)-N^4-methyl-N^6-(5-methyl-1H-pyrazol-3-yl)pyrimidine-4,6-diamine], the values for the pIC50 (on recombinant Aurora A; in test [1]; in test [2]) were no less than 6.00, no less than 7.00 and no less than 6.00, respectively.
